Activity calls are given as the source filed them. How the calls were made is not given here.

The Kd is the constant that tells how readily two partners part at equilibrium.

Ubiquitin-conjugating enzyme E2 N (Homo sapiens), sequence (P61088 whole entry, looked up): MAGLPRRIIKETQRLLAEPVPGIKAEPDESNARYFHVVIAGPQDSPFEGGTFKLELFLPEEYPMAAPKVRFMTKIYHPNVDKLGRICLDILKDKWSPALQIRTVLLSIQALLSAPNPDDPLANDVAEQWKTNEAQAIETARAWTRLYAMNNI

The test has as its target Ubiquitin-conjugating enzyme E2 N (Homo sapiens) (UniProt P61088). As to the kind of experiment: NMR detection of UBE2N ligand binding – biophysical, purified protein (AID 1552). The following applies: NMR binding to purified UBE2N.
As to `C[C@H]1C(=O)O[C@@H]2CCN3CC=C(COC(=O)[C@](C)(O)[C@]1(C)O)[C@H]23`, the Kd is > 4 mM (inactive).

As to `COc1cc2c(cc1OC)[C@@H]1C(=O)c3ccc(O)c(CC=C(C)C)c3O[C@@H]1CO2`, the Kd was > 4 mM (inactive).

Take `CC1(C)Cc2c(c(-c3ccco3)[nH]c(=O)c2C#N)CO1`: the Kd is > 4 mM (inactive).

As for `Cc1[nH]c2ccccc2c(=O)c1CO`, the Kd is > 4 mM (inactive).

`Cn1nccc1N`: the Kd is > 4 mM (inactive).

In the case of `O=C(Nc1ccon1)c1cc2c(s1)CCCC2`, the Kd was > 4 mM (inactive).

Consider `O=C(/C=C/c1ccccc1)c1ccc(O)cc1`, for which the Kd was > 4 mM (inactive).

Consider `Cc1csc2nc(=O)c3ccccc3n12`, for which the Kd is > 4 mM (inactive).

As for `CCC[C@H]1CC2=C(C[C@@H](CC)CC3=C1C(=O)OC3=O)C(=O)OC2=O`, the Kd is > 4 mM (inactive).

As for `O=S(=O)(NCc1ccco1)N1CCOCC1`, the Kd was > 4 mM (inactive).

As for `COC(=O)C1=C(C)N(c2cccc(C(C)=O)c2)C(=O)C1`, the Kd was > 4 mM (inactive).

With `NC(=O)c1cc(N)cc(C(N)=O)c1`, the Kd was > 4 mM (inactive).

Regarding `CC(C)(O)P(C)(=O)c1ccccc1` (configuration not stated), the Kd is > 4 mM (inactive).

For the molecule `COc1ccc2[nH]c(O)c(NC(C)=O)c2c1`, the Kd was > 4 mM (inactive).

Consider `O=C(Nc1nncs1)c1c(F)cccc1F`, for which the Kd is > 4 mM (inactive).

On to `Nc1ncccc1OCc1ccccc1`, for which the Kd is > 4 mM (inactive).

Take `CC(=O)C1=C(O)C(=O)NC1c1ccccc1` (configuration not stated): the Kd was > 4 mM (inactive).

Turning to `C[C@]12CCC(=O)C=C1CCC1C2C(=O)C[C@@]2(C)C1CC[C@]2(O)C(=O)CO` (some centres not stated), the Kd was > 4 mM (inactive).

As to `O=C1NCCCC1C(=O)N1CCCCC1` (configuration not stated), the Kd was > 4 mM (inactive).

On to `C=C[C@H]1CN2CC[C@H]1C[C@H]2[C@H](O)c1ccnc2ccccc12`, for which the Kd was > 4 mM (inactive).

Turning to `Cc1onc(-c2ccccc2)c1CO`, the Kd was > 4 mM (inactive).

In the case of `Nc1ccccc1OC(F)(F)F`, the Kd is > 4 mM (inactive).

With `Cn1c(=O)c2ccccc2n(Cc2ccccc2F)c1=O`, the Kd is > 4 mM (inactive).

For the molecule `Cc1nnc(C)n1/N=C/c1cccs1`, the Kd was > 4 mM (inactive).

Regarding `CS(C)=C1C(=O)NC(=O)N(Cc2ccc(F)cc2)C1=O`, the Kd was > 4 mM (inactive).

For `CC(=O)NC(=S)Nc1cccc(C(=O)O)c1C`, the Kd is > 4 mM (inactive).

Consider `COc1ccc(Cc2nnc3c4cnn(C)c4ncn23)cc1`, for which the Kd was > 4 mM (inactive).

In the case of `Cc1ncc(C[n+]2csc3ccccc32)c(N)n1`, the Kd is > 4 mM (inactive).

With `COc1cccc(/C=C2/SC(N)=NC2=O)c1`, the Kd was > 4 mM (inactive).

For the molecule `O=C(O)c1cc(O)c2c(c1)C(=O)c1cc(O)cc(O)c1C2=O`, the Kd is > 4 mM (inactive).

`O=C1CCCc2c(O)cccc21`: the Kd is > 4 mM (inactive).

Turning to `Cc1cc(C)n(C2CCS(=O)(=O)C2)n1` (configuration not stated), the Kd was > 4 mM (inactive).

As for `Cc1ccc(CO)o1`, the Kd was > 4 mM (inactive).

As to `CS(=O)(=O)c1ccc2nc(N)sc2c1`, the Kd was > 4 mM (inactive).

`OCC1CCCN2CCCCC12` (configuration not stated): the Kd was > 4 mM (inactive).

As for `Cc1cc(C(=O)Nc2nnc(C(F)(F)F)s2)no1`, the Kd is > 4 mM (inactive).

With `OCc1cc(-c2cccs2)on1`, the Kd was > 4 mM (inactive).

Regarding `CC(=O)N1N=C(N)SC1c1cccnc1` (configuration not stated), the Kd is > 4 mM (inactive).

With `O=C(Nc1ncccn1)c1cccc(F)c1`, the Kd is > 4 mM (inactive).

Turning to `Oc1ccc(-c2n[nH]c(=S)n2Cc2ccco2)cc1`, the Kd was > 4 mM (inactive).

For `CC(C)C(C)/C=C/C(C)C1CCC2C3=CC=C4CC(O)CCC4(C)C3CCC21C` (configuration not stated), the Kd is > 4 mM (inactive).

With `Cc1sc2nc(NCCO)[nH]c(=O)c2c1C`, the Kd was > 4 mM (inactive).

For `O=S1(=O)C=CC(Nc2ccccc2)C1` (configuration not stated), the Kd is > 4 mM (inactive).

Regarding `OC1CC2CCC1C2` (configuration not stated), the Kd is > 4 mM (inactive).

`O=C(Nc1ccon1)c1ccc(Cl)s1`: the Kd is > 4 mM (inactive).

As to `NC(CC(=O)O)C(=O)Nc1ccc(Cl)cc1` (configuration not stated), the Kd is > 4 mM (inactive).

In the case of `O=C(Nc1ccccc1[N+](=O)[O-])c1ccc(=O)[nH]n1`, the Kd was > 4 mM (inactive).

For the molecule `O=C1CCCC2C3CC(CN12)[C@@H]1CCCCN1C3` (some centres not stated), the Kd was > 4 mM (inactive).

Regarding `O=C(O[C@@H]1Cc2c(O)cc(O)cc2O[C@@H]1c1ccc(O)c(O)c1)c1cc(O)c(O)c(O)c1`, the Kd is > 4 mM (inactive).

Turning to `Cc1nnc(SCC(=O)NCc2ccccc2)[nH]c1=O`, the Kd is > 4 mM (inactive).

For `OC[C@H]1O[C@@H](n2cnc3c(NCc4ccco4)ncnc32)[C@H](O)[C@@H]1O`, the Kd is > 4 mM (inactive).

As to `COC(=O)CCC(C)[C@H]1CCC2C3C(C[C@H](O)[C@@]21C)[C@@]1(C)CC[C@@H](O)C[C@H]1C[C@H]3O` (some centres not stated), the Kd is > 4 mM (inactive).

With `NC1C2CC3CC1CC(O)(C3)C2` (configuration not stated), the Kd is > 4 mM (inactive).

As to `Cc1nc2ccccc2c2c1C(=O)N(N)C2=O`, the Kd was > 4 mM (inactive).

Regarding `O=C(O)CN1CCN(C2CCCC2)CC1`, the Kd is > 4 mM (inactive).

As to `O=c1/c(=C/c2ccccc2F)sc2ncnn12`, the Kd is > 4 mM (inactive).

For `COc1ccccc1-c1c(C)nn2c(C)c(C(C)=O)cnc12`, the Kd is > 4 mM (inactive).

Regarding `Clc1ccc(-c2nnc3ccccn23)cc1`, the Kd is > 4 mM (inactive).

`CNC(=S)Nc1ncn(Cc2cccc(F)c2)n1`: the Kd is > 4 mM (inactive).

Regarding `c1cnc(N2CCNCC2)nc1`, the Kd was > 4 mM (inactive).

As to `Nc1ncnc2c1ncn2C1O[C@H](COP(=O)(O)O)[C@@H](O)[C@H]1O` (some centres not stated), the Kd is > 4 mM (inactive).

For the molecule `Cc1c(C(=O)Nn2cnnc2)oc2ccccc12`, the Kd was > 4 mM (inactive).

Consider `NC(=O)CSc1ccc2nnc(-c3cccs3)n2n1`, for which the Kd is > 4 mM (inactive).

On to `CC(=O)Nc1ccc(CN2CCOCC2)cc1`, for which the Kd is > 4 mM (inactive).

For `O=C(NCc1ccccc1)c1ccc[n+]([O-])c1`, the Kd is > 4 mM (inactive).

`O=C(O)C1=CCCNC1`: the Kd is > 4 mM (inactive).

As for `COCC(=O)NC1CC(C)(C)NC(C)(C)C1`, the Kd is > 4 mM (inactive).

Consider `Cc1ncc(CC(=O)O)s1`, for which the Kd was > 4 mM (inactive).

Regarding `C[C@@H]1O[C@@H](O[C@H]2CC[C@]3(C=O)C4CC[C@]5(C)[C@@H](C6=CC(=O)OC6)CC[C@]5(O)C4CC[C@]3(O)C2)[C@H](O)[C@H](O)[C@H]1O` (some centres not stated), the Kd was > 4 mM (inactive).

Consider `O=C(O)C1(O)C[C@@H](O)C(O)[C@H](O)C1` (some centres not stated), for which the Kd is > 4 mM (inactive).

Turning to `Cn1c(=O)n(C)c2nc([N+](=O)[O-])c(Cl)cc21`, the Kd was > 4 mM (inactive).

Take `O=c1ccc(=O)n(CN2CCc3ccccc3C2)[nH]1`: the Kd was > 4 mM (inactive).

As to `NCCc1nc2ccccc2[nH]1`, the Kd was > 4 mM (inactive).

Turning to `NC(C(=O)O)C(O)C(=O)O` (configuration not stated), the Kd is > 4 mM (inactive).

For `O=C(O)CN1C(=O)c2ccc(C(=O)O)cc2C1=O`, the Kd was > 4 mM (inactive).

As to `OCc1ccc(N2CCOCC2)cc1`, the Kd is > 4 mM (inactive).

Consider `OCc1cccc2nonc12`, for which the Kd was > 4 mM (inactive).

Take `CC1(C)C[C@@H]2C(=O)CC[C@H]3O[C@]3(C)CC[C@H]21`: the Kd is > 4 mM (inactive).

Take `O=c1[nH]c(=O)n(-c2ccc(F)cc2)c(O)c1/C=C1/C=CC=N1`: the Kd was > 4 mM (inactive).

`Cc1cc(=O)[nH]c(N)n1`: the Kd was > 4 mM (inactive).

Turning to `Cc1cc(NC(=O)c2c(F)c(F)c(F)c(F)c2F)no1`, the Kd is > 4 mM (inactive).

As for `Nc1nc2ccc(S(N)(=O)=O)cc2s1`, the Kd was > 4 mM (inactive).

Turning to `CCCCn1c(S(=O)(=O)O)nc2ccccc21`, the Kd was > 4 mM (inactive).

As for `CC1CCC2(OC1)OC1CC3C4CC[C@H]5C[C@@H](O)CC[C@]5(C)C4CC(=O)[C@]3(C)C1C2C` (some centres not stated), the Kd is > 4 mM (inactive).

With `Cc1ccc2cc(CO)ccc2n1`, the Kd is > 4 mM (inactive).

Turning to `CN(C)C(=O)Nc1ccc2c(c1)nnn2C`, the Kd was > 4 mM (inactive).

`CC12CN([N+](=O)[O-])C3(C(N)=O)CC1CCC23C` (configuration not stated): the Kd is > 4 mM (inactive).

On to `O=c1cc(CO)oc(CN2CCCCC2)c1O`, for which the Kd was > 4 mM (inactive).

`NC(=O)c1ccc(NC(=O)c2cccnc2)cc1`: the Kd is > 4 mM (inactive).

For the molecule `COC(=O)c1cccc(C(F)(F)F)c1`, the Kd is > 4 mM (inactive).

As for `NC(N)=NOCC[C@H](N)C(=O)O`, the Kd is > 4 mM (inactive).

As to `O=c1nc(NCc2ccco2)sc2ncccc12`, the Kd was > 4 mM (inactive).

Turning to `CC(=O)Oc1ccc2c(c1OC(C)=O)OCC1(O)Cc3c(cc(OC(C)=O)c(OC(C)=O)c3OC(C)=O)C21` (configuration not stated), the Kd is > 4 mM (inactive).

On to `Nc1ncnc2nc[nH]c12`, for which the Kd was > 4 mM (inactive).

As to `Cc1cc(C(=O)NCc2ccco2)cs1`, the Kd is > 4 mM (inactive).

`Cc1cccnc1NC1=NCC(C)S1` (configuration not stated): the Kd was > 4 mM (inactive).

As for `CCc1ccc2oc(-c3cc(N)cc(C)c3O)nc2c1`, the Kd is > 4 mM (inactive).

Turning to `NC(=O)c1ccccc1NC(=O)C1CCCO1` (configuration not stated), the Kd was > 4 mM (inactive).

Turning to `COC(=O)C1=CCCN(C)C1`, the Kd is > 4 mM (inactive).

Turning to `C=C(C)[C@@H]1CC[C@]2(CO)CC[C@]3(C)[C@H](CCC4[C@@]5(C)CC[C@H](O)C(C)(C)C5CC[C@]43C)C12` (some centres not stated), the Kd was > 4 mM (inactive).

`CN(C)CCCN1CNC(=S)NC1`: the Kd is > 4 mM (inactive).

As for `COc1c(-c2coc3cc4c(cc3c2=O)CC(OC(C)=O)C(C)(C)O4)ccc2c1C=CC(C)(C)O2` (configuration not stated), the Kd is > 4 mM (inactive).
